ChEMBL document CHEMBL4507325 (2021)

Key:
Settings in all cases: Compound concentration 10.0 uM
[1] = target: Cannabinoid receptor 2 (Homo sapiens) (UniProt P34972)
[2] = target: Sigma non-opioid intracellular receptor 1 (Homo sapiens) (UniProt Q99720)
[3] = target: Histamine H2 receptor (Homo sapiens) (UniProt P25021)
[4] = target: Beta-1 adrenergic receptor (Homo sapiens) (UniProt P08588)
[5] = target: Glucocorticoid receptor (Homo sapiens) (UniProt P04150)
[6] = target: 5-hydroxytryptamine receptor 2B (Homo sapiens) (UniProt P41595)
5-hydroxytryptamine receptor 2B (Homo sapiens), sequence (P41595 whole entry): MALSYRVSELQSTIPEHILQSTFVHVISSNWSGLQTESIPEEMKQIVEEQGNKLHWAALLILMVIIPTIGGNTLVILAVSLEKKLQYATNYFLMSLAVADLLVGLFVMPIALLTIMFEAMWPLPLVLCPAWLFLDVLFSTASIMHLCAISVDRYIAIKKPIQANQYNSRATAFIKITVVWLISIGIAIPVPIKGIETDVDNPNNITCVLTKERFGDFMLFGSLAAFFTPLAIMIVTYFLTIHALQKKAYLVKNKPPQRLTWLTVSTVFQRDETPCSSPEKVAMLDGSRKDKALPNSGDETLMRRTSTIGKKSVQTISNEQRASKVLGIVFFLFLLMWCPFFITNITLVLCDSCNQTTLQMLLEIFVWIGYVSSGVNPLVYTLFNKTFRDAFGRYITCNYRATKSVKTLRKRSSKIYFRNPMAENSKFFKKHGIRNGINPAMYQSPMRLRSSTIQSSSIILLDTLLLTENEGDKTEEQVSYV

[7] = target: Glutamate NMDA receptor (Rattus norvegicus) (UniProt P35439+Q00959+Q00960+Q00961+Q62645+Q8VHN2+Q9R1M7)
[8] = target: Histamine H1 receptor (Homo sapiens) (UniProt P35367)
Histamine H1 receptor (Homo sapiens), sequence (P35367 whole entry): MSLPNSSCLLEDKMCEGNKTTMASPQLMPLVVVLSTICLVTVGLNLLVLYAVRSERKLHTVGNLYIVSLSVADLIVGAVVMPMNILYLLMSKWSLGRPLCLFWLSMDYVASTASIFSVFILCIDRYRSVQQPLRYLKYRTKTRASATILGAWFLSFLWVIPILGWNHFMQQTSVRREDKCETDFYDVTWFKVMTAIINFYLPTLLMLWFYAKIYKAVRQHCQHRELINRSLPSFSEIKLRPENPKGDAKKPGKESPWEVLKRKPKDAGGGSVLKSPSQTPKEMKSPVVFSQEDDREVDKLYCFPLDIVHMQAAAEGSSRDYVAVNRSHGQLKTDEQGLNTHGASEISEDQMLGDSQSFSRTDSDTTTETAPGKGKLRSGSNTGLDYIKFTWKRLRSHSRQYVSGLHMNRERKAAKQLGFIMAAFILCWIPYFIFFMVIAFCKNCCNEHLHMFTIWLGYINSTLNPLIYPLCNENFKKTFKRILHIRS

[9] = target: D(2) dopamine receptor (Homo sapiens) (UniProt P14416)
D(2) dopamine receptor (Homo sapiens), sequence (P14416 whole entry): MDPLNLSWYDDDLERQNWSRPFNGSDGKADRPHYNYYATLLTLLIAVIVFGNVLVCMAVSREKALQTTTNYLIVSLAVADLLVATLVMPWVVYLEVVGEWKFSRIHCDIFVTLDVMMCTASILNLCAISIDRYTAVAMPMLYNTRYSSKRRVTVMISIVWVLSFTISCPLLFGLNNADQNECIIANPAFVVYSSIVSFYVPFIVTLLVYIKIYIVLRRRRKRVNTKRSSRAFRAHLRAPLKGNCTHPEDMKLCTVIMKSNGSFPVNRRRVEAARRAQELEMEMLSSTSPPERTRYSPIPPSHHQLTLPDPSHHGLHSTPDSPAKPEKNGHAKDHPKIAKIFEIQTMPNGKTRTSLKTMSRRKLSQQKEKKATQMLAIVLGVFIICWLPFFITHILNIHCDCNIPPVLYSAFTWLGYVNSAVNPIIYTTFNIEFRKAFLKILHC

Measured: inhibition

Glucocorticoid receptor (Homo sapiens), sequence (P04150 whole entry): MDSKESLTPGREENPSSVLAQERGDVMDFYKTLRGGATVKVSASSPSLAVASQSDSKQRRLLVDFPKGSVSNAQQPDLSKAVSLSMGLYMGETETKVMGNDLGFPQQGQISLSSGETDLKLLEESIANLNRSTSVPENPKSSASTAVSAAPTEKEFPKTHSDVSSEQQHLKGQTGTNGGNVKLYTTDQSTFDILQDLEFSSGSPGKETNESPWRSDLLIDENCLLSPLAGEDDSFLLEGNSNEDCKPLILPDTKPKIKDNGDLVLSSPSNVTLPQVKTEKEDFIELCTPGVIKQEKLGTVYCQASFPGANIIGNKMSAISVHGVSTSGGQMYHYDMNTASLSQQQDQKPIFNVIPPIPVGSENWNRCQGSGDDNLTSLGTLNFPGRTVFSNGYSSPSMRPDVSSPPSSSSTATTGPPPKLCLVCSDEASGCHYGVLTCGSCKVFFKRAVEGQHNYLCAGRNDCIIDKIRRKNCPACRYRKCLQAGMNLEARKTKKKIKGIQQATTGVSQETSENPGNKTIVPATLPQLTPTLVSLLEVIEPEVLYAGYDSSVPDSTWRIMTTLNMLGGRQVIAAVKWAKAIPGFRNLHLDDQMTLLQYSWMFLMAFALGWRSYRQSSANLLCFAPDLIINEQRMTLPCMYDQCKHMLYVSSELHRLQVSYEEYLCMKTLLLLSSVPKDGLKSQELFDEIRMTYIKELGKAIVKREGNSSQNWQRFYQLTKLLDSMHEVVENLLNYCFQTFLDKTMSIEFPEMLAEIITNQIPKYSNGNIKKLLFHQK
Beta-1 adrenergic receptor (Homo sapiens), sequence (P08588 whole entry, looked up): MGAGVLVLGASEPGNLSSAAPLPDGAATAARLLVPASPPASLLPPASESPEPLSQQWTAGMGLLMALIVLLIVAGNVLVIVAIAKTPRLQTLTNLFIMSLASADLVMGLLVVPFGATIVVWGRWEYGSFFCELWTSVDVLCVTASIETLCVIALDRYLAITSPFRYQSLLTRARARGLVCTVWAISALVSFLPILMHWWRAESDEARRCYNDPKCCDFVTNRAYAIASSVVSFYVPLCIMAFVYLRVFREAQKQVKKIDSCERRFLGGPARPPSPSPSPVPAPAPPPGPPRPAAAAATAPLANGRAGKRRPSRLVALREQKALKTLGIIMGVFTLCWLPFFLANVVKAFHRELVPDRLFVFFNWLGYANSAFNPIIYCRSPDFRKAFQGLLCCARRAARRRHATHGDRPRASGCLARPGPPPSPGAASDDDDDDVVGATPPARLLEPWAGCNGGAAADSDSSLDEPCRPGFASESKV
Histamine H2 receptor (Homo sapiens), sequence (P25021 whole entry): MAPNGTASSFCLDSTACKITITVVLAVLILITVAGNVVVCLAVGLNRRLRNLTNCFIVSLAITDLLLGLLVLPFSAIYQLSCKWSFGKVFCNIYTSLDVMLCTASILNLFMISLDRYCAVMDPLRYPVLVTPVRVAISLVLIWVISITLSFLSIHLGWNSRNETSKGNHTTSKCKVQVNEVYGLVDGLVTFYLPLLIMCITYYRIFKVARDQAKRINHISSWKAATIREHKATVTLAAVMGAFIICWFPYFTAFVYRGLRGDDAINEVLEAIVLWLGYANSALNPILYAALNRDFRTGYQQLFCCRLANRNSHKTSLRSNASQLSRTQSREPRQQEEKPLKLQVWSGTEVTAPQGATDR
Cannabinoid receptor 2 (Homo sapiens), sequence (P34972 whole entry): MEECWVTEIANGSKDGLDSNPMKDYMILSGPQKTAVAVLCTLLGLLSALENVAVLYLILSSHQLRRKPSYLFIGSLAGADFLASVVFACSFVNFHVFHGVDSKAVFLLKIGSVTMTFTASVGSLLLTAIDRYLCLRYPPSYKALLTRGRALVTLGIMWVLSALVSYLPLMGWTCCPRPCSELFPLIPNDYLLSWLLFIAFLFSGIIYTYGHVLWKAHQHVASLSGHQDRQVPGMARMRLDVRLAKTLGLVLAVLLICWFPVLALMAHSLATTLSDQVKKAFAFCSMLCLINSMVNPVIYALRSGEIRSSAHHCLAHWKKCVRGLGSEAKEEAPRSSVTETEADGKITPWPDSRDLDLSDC
Sigma non-opioid intracellular receptor 1 (Homo sapiens), sequence (Q99720 whole entry): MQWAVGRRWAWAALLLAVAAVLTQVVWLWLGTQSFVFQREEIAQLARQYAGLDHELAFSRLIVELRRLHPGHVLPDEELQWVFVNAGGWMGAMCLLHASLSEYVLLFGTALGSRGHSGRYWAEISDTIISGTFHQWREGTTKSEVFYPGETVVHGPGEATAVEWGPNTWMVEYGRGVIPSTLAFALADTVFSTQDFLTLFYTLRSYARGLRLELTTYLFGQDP

Cc1ccccc1Oc1cc(-n2c(=O)cc(C(F)(F)F)[nH]c2=O)c2ccccc2c1Cl [BAY-069]
inactive: [1] -5% | [2] 19% | [3] 5.46% | [4] -5.52% | [5] 13% | [6] -0.49% | [7] -2% | [8] -2% | [9] -5%
